How the values were obtained:
dogs = experiment: Action profile (blood glucose) of insulin compositions in dogs; type: in vivo
Experimental: D) Action Profile of an Asp^A21 -Human Insulin-Arg^B31 -Arg^B32-OH Composition in dogs by comparison with human insulin-Arg^B31 -Arg^B32 -OH and basal H insulin Hoechst^(R) =an NPH (neutral protamine Hagedorn) composition containing about 10 μg of Zn^2+.

[1] = pH 4
Experimental: 18 mg of glycerol, 10 mg of benzyl alcohol, 80 μg of Zn^2+, pH 4.0.

[2] = measured by isoelectric focusing; cited from earlier work

Substance | Blood glucose as a % of the initial level (dogs; 1 h) [%] | Blood glucose as a % of the initial level (dogs; 2 h) [%] | Blood glucose as a % of the initial level (dogs; 3 h) [%] | Blood glucose as a % of the initial level (dogs; 5 h) [%] | Blood glucose as a % of the initial level (dogs; 7 h) [%] | Action profile (basal profile) (dogs; compared with human insulin-Arg^B31 -Arg^B32 -OH) | Stability [1] | Isoelectric point [2] [pH]
Asp^A21 -Human Insulin-Arg^B31 -Arg^B32 -OH | 99 | 62 | 51 | 75 | 98 | same advantageous basal profile as human insulin-Arg^B31 -Arg^B32 -OH | stable for a long time under the chosen conditions | –
human insulin-Arg^B31 -Arg^B32 -OH [Human insulin Arg^B31 --Arg^B32 --OH, reference compound] | 77 | 52 | 64 | 85 | 98 | – | – | –
proinsulin: proinsulin | – | – | – | – | – | – | – | 5.4

Reference: US5656722A, “A^21 -, B^30 - modified insulin derivatives having an altered action profile” (Hoechst Aktiengesellschaft, priority 1988, dated 1997)
